From patent US20090023731A1, “SOLUBLE EPOXIDE HYDROLASE INHIBITORS” (Arete Therapeutics, Inc., priority 2007, published 2009)

Tests used:
[1] = system: soluble epoxide hydrolase (sEH); test: Fluorescent assay for mouse and human soluble epoxide hydrolase (CMNPC substrate); type: biochemical
Description: Recombinant mouse sEH (MsEH) and human sEH (HsEH) were produced in a baculovirus expression system as previously reported. […] The expressed proteins were purified from cell lysate by affinity chromatography. […] Protein concentration was quantified using the Pierce BCA assay using bovine serum albumin as the calibrating standard.
The IC50s for each inhibitor were according to the following procedure:
Bis/Tris HCl 25 mM pH 7.0 containing 0.1 mg/mL of BSA (buffer A) CMNPC at 0.25 mM in DMSO.
Mother solution of enzyme in buffer A (Mouse sEH at 6 μg/mL and Human sEH at 5 μg/mL). Inhibitor dissolved in DMSO at the appropriate concentration.
In a black 96 well plate, fill all the wells with 150 μL of buffer A.
Add 2 μL of DMSO in well A2 and A3, and then add 2 μL of inhibitor solution in A1 and A4 through A12.
Add […] of buffer A in row A, then mix several time and transfer […] to row B. Repeat this operation up to row H. The […] removed from row H is discarded.
Add […] of buffer A in column 1 and 2, then add […] of enzyme solution to column 3 to 12.
Incubate the plate for 5 minutes in the plate reader at 30° C.
During incubation prepare the working solution of substrate by mixing 3.68 mL of buffer A (4×0.920 mL) with 266 μL (2×133 μL) of substrate solution).
The velocities are used to analyze and calculate the IC50s.

Row | Structure (SMILES) | melting point [°C] | % Inh ([1]; inhibitor conc. 50 nM) [%] | also measured
1 | O=C(Nc1ccc(F)cc1)Nc1cccc(OCc2ccccc2)c1 [Compound 38, 1-(3-Benzyloxy-phenyl)-3-(4-fluoro-phenyl)-urea] | 187 to 189 | 93 | –
2 | O=C(Nc1ccc(Oc2ccccc2)cc1)Nc1ccc(C(F)(F)F)cc1 [Compound 39, 1-(4-Phenoxy-phenyl)-3-(4-trifluoromethyl-phenyl)-urea] | 211 to 213 | 90 | –
3 | O=C(Nc1ccc(C(F)(F)F)cc1)Nc1cccc(Oc2ccccc2)c1 [Compound 40, 1-(3-Phenoxy-phenyl)-3-(4-trifluoromethyl-phenyl)-urea] | 178 to 181 | 96 | –
4 | O=C(Nc1ccc(Oc2cccc(C(=O)O)c2)cc1)NC12CC3CC(CC(C3)C1)C2 [Compound 59, 3-(4-(3-Adamantan-1-ylureido)phenoxy)benzoic acid] | 185 to 187 | – | % Inh ([1]; inhibitor conc. 5000 nM): 99%
5 | O=C(Nc1ccc(OC(F)(F)F)cc1)N[C@H]1CC[C@H](Oc2ccc(C(=O)O)cc2)CC1 [Compound 74, 4-((1r,4r)-4-(3-(4-(trifluoromethoxy)phenyl)ureido)cyclohexyloxy)benzoic acid] | – | – | % Inh ([1]; inhibitor conc. 2000 nM): 100%
6 | O=C(Cc1ccccc1)Nc1ccc(OCCCN2CCOCC2)cc1 [Compound 25, N-[4-(3-Morpholin-4-yl-propoxy)-phenyl]-2-phenyl-acetamide] | – | – | % Inh ([1]; inhibitor conc. 5000 nM): 80%
7 | O=C(Nc1ccc(Oc2ccc(C(=O)O)cc2)cc1)NC12CC3CC(CC(C3)C1)C2 [Compound 65, 4-(4-(3-(adamantyl)ureido)phenoxy)benzoic acid] | 162 to 166 | – | % Inh ([1]; inhibitor conc. 2000 nM): 100%
8 | O=C(Nc1ccccc1)Nc1cccc(OCCCN2CCOCC2)c1 [Compound 1, 1-[3-(3-Morpholin-4-yl-propoxy)-phenyl]-3-phenyl-urea] | – | – | % Inh ([1]; inhibitor conc. 500 nM): 62%
9 | O=C(Nc1cccc(OCCCN2CCOCC2)c1)Nc1c(Cl)cccc1Cl [Compound 3, 1-(2,6-Dichloro-phenyl)-3-[3-(3-morpholin-4-yl-propoxy)-phenyl]-urea] | – | – | % Inh ([1]; inhibitor conc. 50000 nM): 90%
10 | O=C(Nc1cccc(OCCCN2CCOCC2)c1)Nc1c(F)cc(F)cc1F [Compound 6, 1-[3-(3-Morpholin-4-yl-propoxy)-phenyl]-3-(2,4,6-trifluoro-phenyl)-urea] | – | – | % Inh ([1]; inhibitor conc. 50000 nM): 92%
11 | O=C(Nc1ccc(F)c(OCCCN2CCOCC2)c1)NC1CCCCC1 [Compound 54, 1-Cyclohexyl-3-[4-fluoro-3-(3-morpholin-4-yl-propoxy)-phenyl]-urea] | – | 83 | –
12 | O=C(Nc1cccc(Oc2ccc(C(=O)O)cc2)c1)NC12CC3CC(CC(C3)C1)C2 [Compound 68] | 152 to 154 | – | –
13 | CC(C)(C)CC(=O)Nc1cccc(OCCCN2CCOCC2)c1 [Compound 44, 3,3-Dimethyl-N-[3-(3-morpholin-4-yl-propoxy)-phenyl]-butyramide] | – | – | % Inh ([1]; inhibitor conc. 5000 nM): 70%
14 | O=C(Nc1cccnc1)Nc1cccc(OCCCN2CCOCC2)c1 [Compound 16, 1-[3-(3-Morpholin-4-yl-propoxy)-phenyl]-3-pyridin-3-yl-urea] | – | – | % Inh ([1]; inhibitor conc. 50000 nM): 95%
15 | O=C(Nc1ccccc1)Nc1ccc(OCCCN2CCOCC2)cc1 [Compound 14, 1-[4-(3-Morpholin-4-yl-propoxy)-phenyl]-3-phenyl-urea] | – | – | % Inh ([1]; inhibitor conc. 500 nM): 90%
16 | O=C(Nc1cccc(OCCCN2CCOCC2)c1)Nc1ccc(F)cc1F [Compound 5, 1-(2,4-Difluoro-phenyl)-3-[3-(3-morpholin-4-yl-propoxy)-phenyl]-urea] | – | – | % Inh ([1]; inhibitor conc. 500 nM): 78%
17 | O=C(CNC12CC3CC(CC(C3)C1)C2)Nc1cccc(OCCCN2CCOCC2)c1 [Compound 58, 2-(Adamantan-1-ylamino)-N-[3-(3-morpholin-4-yl-propoxy)-phenyl]-acetamide] | – | – | % Inh ([1]; inhibitor conc. 500 nM): 81%
18 | O=C(Nc1ccc(OCCCN2CCOCC2)cc1)Nc1ccc(OC(F)(F)F)cc1 [Compound 34, 1-[4-(3-Morpholin-4-yl-propoxy)-phenyl]-3-(4-trifluoromethoxy-phenyl)-urea] | – | 91 | –
19 | O=C(Nc1ccc(Oc2ccc(C(=O)O)cc2)cc1)Nc1ccc(C(F)(F)F)cc1 [Compound 66, 4-(4-(3-(4-(trifluoromethyl)phenyl)ureido)phenoxy)benzoic acid] | > 400 | – | % Inh ([1]; inhibitor conc. 2000 nM): 100%
20 | O=C(CC12CC3CC(CC(C3)C1)C2)Nc1ccc(F)c(OCCCN2CCOCC2)c1 [Compound 52, 2-Adamantan-1-yl-N-[4-fluoro-3-(3-morpholin-4-yl-propoxy)-phenyl]-acetamide] | – | – | % Inh ([1]; inhibitor conc. 500 nM): 93%
21 | O=C(Nc1cccc(OCc2ccccc2)c1)NC12CC3CC(CC(C3)C1)C2 [Compound 57, 1-Adamantan-1-yl-3-(3-benzyloxy-phenyl)-urea] | 232 to 235 | 98 | –
22 | O=C(Nc1ccc(C(F)(F)F)cc1)Nc1cccc(OCc2ccccc2)c1 [Compound 37, 1-(3-Benzyloxy-phenyl)-3-(4-trifluoromethyl-phenyl)-urea] | 208 to 210 | 99 | –
23 | O=C(Nc1cccc(Oc2cccc(C(=O)O)c2)c1)NC12CC3CC(CC(C3)C1)C2 [Compound 70, 3-(3-(3-(adamantyl)ureido)phenoxy)benzoicacid] | – | – | % Inh ([1]; inhibitor conc. 2000 nM): 95%
24 | O=C(CC12CC3CC(CC(C3)C1)C2)NC1CCCC(OCCCN2CCOCC2)C1 (centres unmarked) [Compound 49, 2-Adamantan-1-yl-N-[3-(3-morpholin-4-yl-propoxy)-cyclohexyl]-acetamide] | – | 79 | –
25 | O=C(CC1CCCCC1)Nc1cccc(OCCCN2CCOCC2)c1 [Compound 51, 2-Cyclohexyl-N-[3-(3-morpholin-4-yl-propoxy)-phenyl]-acetamide] | – | 61 | –
26 | O=C(Nc1ccc(Oc2ccc(C(=O)O)cc2)cc1)Nc1cccc(C(F)(F)F)c1 [Compound 67, 4-(4-(3-(3-(trifluoromethyl)phenyl)ureido)phenoxy)benzoic acid] | 318 | – | % Inh ([1]; inhibitor conc. 2000 nM): 99%
27 | O=C(Nc1ccccc1)Nc1ccc(F)c(OCCCN2CCOCC2)c1 [Compound 29, 1-[4-Fluoro-3-(3-morpholin-4-yl-propoxy)-phenyl]-3-phenyl-urea] | – | – | % Inh ([1]; inhibitor conc. 500 nM): 73%
28 | O=C(Cc1ccc(OC(F)(F)F)cc1)Nc1cccc(OCCCN2CCOCC2)c1 [Compound 23, N-[3-(3-Morpholin-4-yl-propoxy)-phenyl]-2-(4-trifluoromethoxy-phenyl)-acetamide] | – | – | % Inh ([1]; inhibitor conc. 500 nM): 86%

The next lines start with results.

Row | melting point [°C] | % Inh ([1]; inhibitor conc. 50 nM) [%] | Structure (SMILES) | also measured
29 | – | 74 | O=C(Nc1cccc(OCCCN2CCOCC2)c1)Nc1cccc(C(F)(F)F)c1 [Compound 10, 1-[3-(3-Morpholin-4-yl-propoxy)-phenyl]-3-(3-trifluoromethyl-phenyl)-urea] | –
30 | – | 96 | O=C(Nc1cccc(OCCCN2CCOCC2)c1)NC1CCCCC1 [Compound 41, 1-Cyclohexyl-3-[3-(3-morpholin-4-yl-propoxy)-phenyl]-urea] | –
31 | – | 82 | O=C(Nc1ccc(F)cc1)Nc1cccc(OCCCN2CCOCC2)c1 [Compound 2, 1-(4-Fluoro-phenyl)-3-[3-(3-morpholin-4-yl-propoxy)-phenyl]-urea] | –
32 | – | 94 | O=C(Nc1ccc(Cl)cc1)Nc1cccc(OCCCN2CCOCC2)c1 [Compound 15, 1-(4-Chloro-phenyl)-3-[3-(3-morpholin-4-yl-propoxy)-phenyl]-urea] | –
